Consider six compounds from paper PMC9305750 (Chemmedchem, 2022).

In test [1] the target is T1, human Nurr1 ligand binding domain (LBD) fused to the Gal4 DNA binding domain (Homo sapiens, UniProt P43354). The test is described as follows: Hybrid Gal4-Nurr1 reporter gene assay in transiently transfected HEK293T cells. The test is classed as cell-based. Conditions: for fold act. (maximum Nurr1 activation vs. DMSO (0.1 %)): purified compounds, mean±S.E.M., n≥3. In general terms: In a reporter assay the amount or activity of a reporter protein is the signal.

The next test deals with Nurr1 LBD (Homo sapiens, UniProt P43354). The test is described as follows: HTRF assay of Nurr1 LBD homodimerization. The class given is biochemical. Background: Time-resolved FRET reads energy transfer from a long-lived donor to a nearby acceptor.
Test [2] deals with T1, human Nurr1 ligand binding domain (LBD) fused to the Gal4 DNA binding domain. Particulars: for comparison; cited from earlier work.

Where “and” joins values, the source holds several entries; their conditions need not be identical. Equal entries are not always repeated. Entries after “also recorded” stand apart in the source; their conditions may differ. Where two headings read alike, the source gives them in different places.

T1 sequence (P43354 360-595 limits assumed): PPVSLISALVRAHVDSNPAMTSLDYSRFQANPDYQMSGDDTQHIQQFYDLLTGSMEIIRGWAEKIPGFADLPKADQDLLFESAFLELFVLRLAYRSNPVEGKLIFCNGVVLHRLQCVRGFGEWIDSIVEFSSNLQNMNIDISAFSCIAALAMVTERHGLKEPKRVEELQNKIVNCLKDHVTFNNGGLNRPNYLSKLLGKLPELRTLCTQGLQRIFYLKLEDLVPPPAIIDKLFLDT
Chain of Nurr1 LBD (P43354 360-595 limits assumed): as above

The EC50 is the concentration at which the effect is half-maximal. Read a high EC50 as a less potent agent. Regarding `Clc1ccc(-c2ccc(CNc3ccnc4cc(Cl)ccc34)o2)cc1` [3 j, 7‐Chloro‐N‐((5‐(4‐chlorophenyl)furan‐2‐yl)methyl)quinolin‐4‐amine], in test [1], the EC50 was 8 ± 1 µM and the “fold act. (maximum Nurr1 activation vs. DMSO (0.1 %))” value turned out to be 2.5±0.1 fold. Also, the “effect on Nurr1 LBD homodimerization (HTRF)” value at Nurr1 LBD is recorded as “diminished dimerization; also recorded: diminished Nurr1 homodimerization”.
For `CCN(CC)Cc1cc(Nc2ccnc3cc(Cl)ccc23)ccc1O` [AQ, amodiaquine], the “fold act. (maximum Nurr1 activation vs. DMSO (0.1 %))” value in test [2] was 3.6 fold and 3.6±0.1 fold.
For `CCN(CC)CCCC(C)Nc1ccnc2cc(Cl)ccc12` (stereo not shown) [CQ, chloroquine], the “fold act. (maximum Nurr1 activation vs. DMSO (0.1 %))” value in test [2] is 2.0±0.1 fold.
Take `Nc1ccnc2cc(Cl)ccc12` [compound 3, 4‐Amino‐7‐chloroquinoline]: in test [2], the “fold act. (maximum Nurr1 activation vs. DMSO (0.1 %))” value was 2.5 fold and 2.5±0.4 fold.
On to `O=C(Nc1ccnc2cc(Cl)ccc12)c1ccc(-c2ccc(Cl)cc2)o1` [compound 4, 5‐(4‐Chlorophenyl)‐N‐(7‐chloroquinolin‐4‐yl)furan‐2‐carboxamide], for which, in test [1], the EC50 turned out to be 3 ± 0.1 µM and the “fold act. (maximum Nurr1 activation vs. DMSO (0.1 %))” value turned out to be 2.0±0.1 fold.
In the same order, the values of `Clc1ccc(-c2ccc(CN3CCOc4cc(Cl)ccc43)o2)cc1` [compound 5, 7‐Chloro‐4‐((5‐(4‐chlorophenyl)furan‐2‐yl)methyl)‐3,4‐dihydro‐2H‐benzo[b][1,4]oxazine] are 47 ± 13 µM and 2.0±0.2 fold.
